Test results from US9399032B2, “Methods and compositions for treating degenerative and ischemic disorders” (The General Hospital Corporation, priority 2009, dated 2016).
Structures can show the parent of a compound that is named as a salt.

Each molecule was assayed on MCH58 fibroblasts (assay: Glucose versus galactose cell growth screen (metabolic state-dependent lethality)). Conditions: approximately 10 μM compound, 72 hours; log10 fold change of normalized cell number in glucose versus galactose.
Description: The assay included monitoring or measuring cell growth in cells that are grown in glucose (which allows the cell to utilize glycolysis) or in galactose (which switches the cell energy production from glycolysis to the OXPHOS pathway).
The high glucose medium was replaced with 10 mM glucose or 10 mM galactose wherever indicated. All media contained 1 mM pyruvate and 4 mM glutamine.
Cell number quantification high throughput assays were performed as follows. […] 24 hours later, cells were washed twice in PBS and media was replaced with either 10 mM glucose or 10 mM galactose containing media.
Approximately 100 nL of each compound was pin-transferred in duplicate into the plates with a steel pin array using the CyBi-Well robot (CyBio). […] Compound-treated plates were incubated at 37° C. for 72 hours. […] Wells were then washed once and stored in PBS. Cell culture plates were stored at 4° C. until time of imaging, which was at most 24 hours after fixation.
Imaging was performed by Arrayscan VTi automated microscope (ThermoFisher Scientific) with the use of an automated plate stacker. Appropriate filter sets for the detection of the Hoescht fluorescent signal were used. Four non-overlapping images at 5× magnification (NA 0.25) were acquired for a field of view of 1.3 mm×1.3 mm per image. The plate stacker and microscope including an auto-focusing algorithm were controlled entirely with ArrayScan software. Images were captured and stored simultaneously in at least two independent locations. Image analysis was performed using the freely available open-source software package CellProfiler. […] Images were analyzed individually by first identifying nuclei using the Hoescht staining signal.
Total number of nuclei per field were recorded, and the four images per well were totaled to give the cell count per well. Computation was performed using a UNIX computer cluster. Appropriate masking of each nucleus was ensured by visually monitoring each batch at its onset and intermittently throughout the run.
The fibroblast cells were seeded on Day 0 and incubated for 24 hours in standard culture media.
Normalized cell counts were computed separately for each 96-well plate by dividing the cell count of each well with the trimmed mean (the average after discarding the largest and smallest value) of the cell counts for the 16 DMSO treated wells. […] The remaining replicate measurements were averaged, and fold changes were computed as the ratio between the average normalized counts for the glucose and galactose screens. To evaluate statistical significance, Z-scores were computed for each well against the DMSO (null) distribution and averaged Z-scores across replicates. Wells with average Z-score greater than 2.5 were considered significant.
By jointly analyzing the glucose and galactose results, a glucose-galactose cell growth ratio can be calculated (Sglu/gal) that represents the log10 fold-change in cell growth in a glucose rich media divided by the log10 fold-change in cell growth in a galactose rich media. […] Low Sglu/gal scores (e.g., ranging between approximately (−) 0.1 to (−) 0.7) may arise from inhibition of glycolysis or from inhibition of proliferation, since cells grown in glucose-rich media divide more rapidly.
For 15-norcaryophyllen-3-one, the “Sglu/gal (log10 fold change) Score” value was −0.29. With `CC1(C)C(=O)C=C[C@]2(C)[C@H]3CC[C@@]4(C)[C@H](c5ccoc5)OC(=O)[C@H]5O[C@]54[C@]3(C)C=C[C@@H]12` [7-desacetoxy-6,7-dehydrogedunin] the “Sglu/gal (log10 fold change) Score” value was −0.22. `CCCCC(CC)CNC(=N)NC(=N)NCCCCCCNC(=N)NC(=N)NCC(CC)CCCC` (stereo not drawn) [Alexidine dihydrochloride] was tested, and the “Sglu/gal (log10 fold change) Score” value was 0.44. With `COc1cc2c(cc1OC)[C@@H]1C(=O)c3c(O)cc4c(c3O[C@@H]1CO2)C=CC(C)(C)O4` [Alpha-toxicarol] the “Sglu/gal (log10 fold change) Score” value was 0.91. In the case of `C[C@@H]1CC[C@H]2[C@@H](C)C(=O)O[C@@H]3O[C@@]4(C)CC[C@@H]1[C@]32OO4` [Artemisinin], the “Sglu/gal (log10 fold change) Score” value is reported as 0.17. In the case of `O=C1O[C@H]([C@@H](O)CO)C(O)=C1O` [Ascorbic acid], the “Sglu/gal (log10 fold change) Score” value is reported as 0.15. For `COc1cc2c(cc1OC)[C@@H]1C(=O)c3ccc4c(c3O[C@@H]1CO2)CC(C(C)C)O4` (stereo partly drawn) [Beta-dihydrorotenone], the “Sglu/gal (log10 fold change) Score” value was 0.85. In the case of `COc1cc2c(cc1OC)C1C(=O)c3c(cc4c(c3O)C=CC(C)(C)O4)OC1CO2` (stereo not drawn) [Beta-toxicarol], the “Sglu/gal (log10 fold change) Score” value is reported as 0.82. For `COc1ccccc1OCCNCC(O)COc1cccc2[nH]c3ccccc3c12` (stereo not drawn) [Carvedilol], the “Sglu/gal (log10 fold change) Score” value was 0.15. For `[H]/N=C(\N/C(=N/[H])NCCCCCCNC(=N)NC(=N)Nc1ccc(Cl)cc1)Nc1ccc(Cl)cc1` [Chlorhexidine], the “Sglu/gal (log10 fold change) Score” value was 0.16. In the case of `CN1CCC[C@@H]1CCO[C@](C)(c1ccccc1)c1ccc(Cl)cc1` [Clemastine fumarate], the “Sglu/gal (log10 fold change) Score” value is reported as 0.19. For `CCN(CC)CCOc1ccc(C(=C(Cl)c2ccccc2)c2ccccc2)cc1` [Clomiphene citrate], the “Sglu/gal (log10 fold change) Score” value was 0.21. For `COc1cc2c(c(OC)c1OC)-c1ccc(OC)c(=O)cc1[C@@H](NC(C)=O)CC2` [Colchicine], the “Sglu/gal (log10 fold change) Score” value was −0.26. `CN(C)CCC=C1c2ccccc2C=Cc2ccccc21` [Cyclobenzaprine hydrochloride] was tested, and the “Sglu/gal (log10 fold change) Score” value was 0.13. For `Cc1cc(N)c2ccccc2[n+]1CCCCCCCCCC[n+]1c(C)cc(N)c2ccccc21` [Dequalinium dichloride], the “Sglu/gal (log10 fold change) Score” value was 0.42. In the case of `CCN[C@H]1C[C@H](C)S(=O)(=O)c2sc(S(N)(=O)=O)cc21` [Dorzolamide hydrochloride], the “Sglu/gal (log10 fold change) Score” value is reported as 0.17. With `C#C[C@]1(OC(C)=O)CC[C@H]2[C@@H]3CCC4=C[C@@H](OC(C)=O)CC[C@@H]4[C@H]3CC[C@@]21C` [Ethynodiol diacetate] the “Sglu/gal (log10 fold change) Score” value was 0.15. `CC(C)n1c(/C=C/C(O)CC(O)CC(=O)O)c(-c2ccc(F)cc2)c2ccccc21` (stereo not drawn) [Fluvastatin sodium salt] was tested, and the “Sglu/gal (log10 fold change) Score” value was 0.16. `COc1cc2c(cc1OC)[C@@H]1C(=O)c3ccc4oc(C(C)C)cc4c3O[C@@H]1CO2` [Isorotenone] was tested, and the “Sglu/gal (log10 fold change) Score” value was 0.71. For `OC(c1cc(C(F)(F)F)nc2c(C(F)(F)F)cccc12)C1CCCCN1` (stereo not drawn) [Mefloquine], the “Sglu/gal (log10 fold change) Score” value was 0.20. In the case of `Cc1cc(C(C)(C)CC(C)(C)C)ccc1OCCOCC[N+](C)(C)Cc1ccccc1.[Cl-]` [Methyl benzethonium chloride], the “Sglu/gal (log10 fold change) Score” value is reported as 0.80. With `COc1c(-c2coc3cc4c(cc3c2=O)CC(O)C(C)(C)O4)ccc2c1C=CC(C)(C)O2` (stereo not drawn) [Mundulone] the “Sglu/gal (log10 fold change) Score” value was 0.50. For `CN(C/C=C/c1ccccc1)Cc1cccc2ccccc12` [Naftifine hydrochloride], the “Sglu/gal (log10 fold change) Score” value was 0.19. `O=C(Nc1ccc([N+](=O)[O-])cc1Cl)c1cc(Cl)ccc1O` [Niclosamide] was tested, and the “Sglu/gal (log10 fold change) Score” value was 0.15. With `O=C(N/N=C/c1ccc([N+](=O)[O-])o1)c1ccc(O)cc1` [Nifuroxazide] the “Sglu/gal (log10 fold change) Score” value was 0.34. With `COc1ccc(Cc2nccc3cc(OC)c(OC)cc23)cc1OC` [Papaverine hydrochloride] the “Sglu/gal (log10 fold change) Score” value was 0.30. In the case of `CCCCc1ccc2[nH]c(NC(=O)OC)nc2c1` [Parbendazole], the “Sglu/gal (log10 fold change) Score” value is reported as −0.24. `N=C(N)c1ccc(OCCCCCOc2ccc(C(=N)N)cc2)cc1` [Pentamidine isethionate] was tested, and the “Sglu/gal (log10 fold change) Score” value was 0.24. With `O=c1[nH]c2ccccc2n1C1CCN(CCCC(c2ccc(F)cc2)c2ccc(F)cc2)CC1` [Pimozide] the “Sglu/gal (log10 fold change) Score” value was 0.18. `COc1cc([C@@H]2c3cc4c(cc3[C@H](O)[C@H]3COC(=O)[C@H]23)OCO4)cc(OC)c1OC` [Podophyllotoxin] was tested, and the “Sglu/gal (log10 fold change) Score” value was −0.27. In the case of `COc1cc(C(=O)O)c2c(c1C)OC(=O)c1c(C)cc(O)c(C=O)c1O2` [Psoromic acid], the “Sglu/gal (log10 fold change) Score” value is reported as 0.35. For `COc1cc2c(cc1OC)[C@@H]1C(=O)c3ccc(OC)c(CC=C(C)C)c3O[C@@H]1CO2` [Rotenonic acid, methyl ether], the “Sglu/gal (log10 fold change) Score” value was 0.34. With `COc1cc2c(cc1OC)[C@@H]1C(=O)c3ccc(O)c(CC=C(C)C)c3O[C@@H]1CO2` [Rotenonic acid] the “Sglu/gal (log10 fold change) Score” value was 0.33. `Clc1ccc(C(Cn2ccnc2)OCc2csc3c(Cl)cccc23)c(Cl)c1` (stereo not drawn) [Sertaconazole nitrate] was tested, and the “Sglu/gal (log10 fold change) Score” value was 0.19. With `CN[C@H]1CC[C@@H](c2ccc(Cl)c(Cl)c2)c2ccccc21` [Sertraline hydrochloride] the “Sglu/gal (log10 fold change) Score” value was 0.15. For `CCCCCCCCCCCCCCCC[N+](C)(C)CCN(Cc1ccc(OC)cc1)c1ncccn1` [Thonzonium bromide], the “Sglu/gal (log10 fold change) Score” value was 0.38. For `CC(C)c1c(O)ccc2c1CCC1C(C)(C(=O)O)CCCC21C` (stereo not drawn) [Totarol-19-carboxylic acid], the “Sglu/gal (log10 fold change) Score” value was 0.80. For `O=c1[nH]c(=O)n([C@H]2C[C@H](O)[C@@H](CO)O2)cc1C(F)(F)F` [Trifluridine], the “Sglu/gal (log10 fold change) Score” value was −0.26. With `CCOC(=O)C1=C[C@]2(CC)CCCN3CCc4c(n1c1ccccc41)[C@@H]32` [Vinpocetine] the “Sglu/gal (log10 fold change) Score” value was 0.23. `C[n+]1c2cc(N)ccc2cc2ccc(N)cc21.[Cl-]` [acriflavinium hydrochloride] was tested, and the “Sglu/gal (log10 fold change) Score” value was −0.29. In the case of `CCCCCCc1ccc(O)cc1O.Nc1c2ccccc2nc2ccccc12` [acrisorcin], the “Sglu/gal (log10 fold change) Score” value is reported as −0.36. With `CC[C@@]1(O)C[C@H](O[C@H]2C[C@H](N(C)C)[C@H](O)[C@H](C)O2)c2c(cc3c(c2O)C(=O)c2c(O)cccc2C3=O)[C@H]1C(=O)OC` [aklavine hydrochloride] the “Sglu/gal (log10 fold change) Score” value was −0.33. With `Nc1c2ccccc2nc2ccccc12` [aminacrine] the “Sglu/gal (log10 fold change) Score” value was −0.29. In the case of `C=C1CC[C@@H]2[C@](C)(CO)[C@H](O)CC[C@@]2(C)[C@@H]1C/C=C1/C(=O)OC[C@H]1O` [andrographolide], the “Sglu/gal (log10 fold change) Score” value is reported as −0.46. For `COc1ccc(C[C@H]2NC[C@H](O)[C@H]2OC(C)=O)cc1` [anisomycin], the “Sglu/gal (log10 fold change) Score” value was −0.24. With `CC(=O)O[C@@H]1C[C@@]2(C)[C@H](c3ccoc3)C[C@H]3O[C@]32[C@]2(C)C(=O)C(O)=C3C(C)(C)C(=O)C=C[C@]3(C)[C@@H]12` [anthothecol] the “Sglu/gal (log10 fold change) Score” value was −0.30. `CC[C@@]1(O)C(=O)OCc2c1cc1n(c2=O)Cc2cc3ccccc3nc2-1` [camptothecin] was tested, and the “Sglu/gal (log10 fold change) Score” value was −0.26. In the case of `C[C@@]12C(=O)OC(=O)[C@]1(C)[C@H]1CC[C@@H]2O1` [cantharidin], the “Sglu/gal (log10 fold change) Score” value is reported as −0.33. With `CC1(C)C(=O)C=C[C@@]2(C)C1=C(O)C(=O)[C@]1(C)[C@@H]2CC[C@@]2(C)[C@H](c3ccoc3)C[C@H]3O[C@]321` [cedrelone] the “Sglu/gal (log10 fold change) Score” value was −0.22. In the case of `CC1=C(O)C(=O)C=C2C1=CC=C1[C@@]2(C)CC[C@@]2(C)[C@@H]3C[C@](C)(C(=O)O)CC[C@]3(C)CC[C@]12C` [celastrol], the “Sglu/gal (log10 fold change) Score” value is reported as −0.29. For `Oc1c(Cl)cc(Cl)c2cccnc12` [chloroxine], the “Sglu/gal (log10 fold change) Score” value was −0.23. `C=C1C(=O)O[C@H]2C[C@@H]1C(OC(C)=O)C/C(C)=C/CC/C(C)=C/CC[C@@]2(C)O` (stereo partly drawn) [crassin acetate] was tested, and the “Sglu/gal (log10 fold change) Score” value was −0.35. For `CO[C@H]1C=C[C@@]23c4cc5c(cc4CN(C[C@@H]2O)[C@H]3C1)OCO5` [crinamine], the “Sglu/gal (log10 fold change) Score” value was −0.22. `Cc1c(O)c(O)cc2c1CC=C1[C@@]2(C)CC[C@@]2(C)[C@@H]3C[C@](C)(C(=O)O)CC[C@]3(C)CC[C@]12C` [dihydrocelastrol] was tested, and the “Sglu/gal (log10 fold change) Score” value was −0.31. With `CC(C)=CCCC1(C)C=Cc2c(O)c3c(c(CC=C(C)C)c2O1)OC12C(=CC4CC1C(C)(C)OC2(C/C=C(/C)C(=O)O)C4O)C3=O` (stereo not drawn) [dihydrogambogic acid] the “Sglu/gal (log10 fold change) Score” value was −0.32. With `CC[C@H]1CN2CCc3cc(OC)c(OC)cc3[C@@H]2C[C@@H]1C[C@H]1NCCc2cc(OC)c(OC)cc21` [emetine] the “Sglu/gal (log10 fold change) Score” value was −0.22. In the case of `O=c1[nH]c(=O)n([C@H]2C[C@H](O)[C@@H](CO)O2)cc1F` [floxuridine], the “Sglu/gal (log10 fold change) Score” value is reported as −0.28. For `CC(C)=CCC[C@]1(C)C=Cc2c(O)c3c(c(CC=C(C)C)c2O1)O[C@]12C(=C[C@@H]4C[C@H]1C(C)(C)O[C@@]2(C/C=C(/C)C(=O)O)C4=O)C3=O` [gambogic acid], the “Sglu/gal (log10 fold change) Score” value was −0.34. In the case of `CC(=O)O[C@H]1CC[C@@]2(C)[C@H](CC[C@@H]3[C@@H]2CC[C@]2(C)[C@@H](C4=CC(=O)OC4)[C@@H](OC(C)=O)C[C@]32O)C1` [gitoxigenin diacetate], the “Sglu/gal (log10 fold change) Score” value is reported as −0.21. `C=C1C(=O)O[C@@H]2C[C@@]3(C)CCC[C@H](C)C3=C[C@H]12` [helenine] was tested, and the “Sglu/gal (log10 fold change) Score” value was −0.22. With `CC[n+]1c(-c2ccccc2)c2cc(N)ccc2c2ccc(N)cc21` [homidium bromide] the “Sglu/gal (log10 fold change) Score” value was −0.54. `Cl.Cl.O=C1c2c(O)ccc(O)c2C(=O)c2c(NCCNCCO)ccc(NCCNCCO)c21` [mitoxanthrone hydrochloride] was tested, and the “Sglu/gal (log10 fold change) Score” value was −0.73. In the case of `CO[C@H]1[C@H](O)[C@H](O[C@H]2CC[C@@]3(C)[C@H](CC[C@@H]4[C@@H]3CC[C@]3(C)[C@@H](C5=CC(=O)OC5)CC[C@]43O)C2)O[C@@H](C)[C@@H]1O` [neriifolin], the “Sglu/gal (log10 fold change) Score” value is reported as −0.21.

Same assay, conditions: approximately 10 μM compound, 72 hours; log10 fold change of normalized cell number in glucose versus galactose; listed as Methylbenzethonium chloride
In the case of `Cc1cc(C(C)(C)CC(C)(C)C)ccc1OCCOCC[N+](C)(C)Cc1ccccc1.[Cl-]` [Methyl benzethonium chloride], the “Sglu/gal (log10 fold change) Score” value is reported as 0.46.

Same assay, conditions: galactose versus glucose
In the case of `CN(C)CCC=C1c2ccccc2CCc2ccccc21` [amitriptyline], the “inhibitory activity against cell growth in galactose (SAR analysis)” value is reported as “moderate inhibitory activity”. `CN1CCN(C(c2ccccc2)c2ccc(Cl)cc2)CC1` (stereo not drawn) [chlorcyclizine] was tested, and the “inhibitory activity against cell growth in galactose (SAR analysis)” value was “more potent than that of homopiperazine analogue”.
